Legend:
[1] = molecular target: Cytochrome P450 3A4 (Homo sapiens, UniProt P08684); details: bti-tn-5b1-4; further: in other assays of this panel Not Active means under 50% inhibition at 10 µM
[2] = DRUGMATRIX: Platelet-Derived Growth Factor (PDGF) radioligand binding (ligand: [125I] PDGF); assay type: cell-based; details: nih3t3; Not Active = under 50% inhibition at 10 µM
[3] = molecular target: Cytochrome P450 2E1 (Homo sapiens, UniProt P05181); details: bti-tn-5b1-4; further: in other assays of this panel Not Active means under 50% inhibition at 10 µM
Chain of Cytochrome P450 2E1 (P05181 whole entry): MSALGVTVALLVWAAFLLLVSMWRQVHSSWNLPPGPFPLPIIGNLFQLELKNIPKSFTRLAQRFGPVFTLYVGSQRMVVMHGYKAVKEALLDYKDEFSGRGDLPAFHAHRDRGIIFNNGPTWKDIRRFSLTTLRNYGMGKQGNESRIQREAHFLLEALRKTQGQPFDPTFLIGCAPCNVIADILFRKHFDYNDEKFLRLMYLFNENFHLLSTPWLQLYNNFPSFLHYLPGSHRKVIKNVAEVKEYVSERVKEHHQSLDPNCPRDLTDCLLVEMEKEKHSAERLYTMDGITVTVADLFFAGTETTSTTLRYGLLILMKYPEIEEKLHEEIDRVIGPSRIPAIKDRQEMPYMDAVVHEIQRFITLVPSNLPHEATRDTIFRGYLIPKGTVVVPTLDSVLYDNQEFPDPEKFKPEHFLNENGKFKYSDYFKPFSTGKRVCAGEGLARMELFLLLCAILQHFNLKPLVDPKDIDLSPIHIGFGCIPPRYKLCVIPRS

[4] = molecular target: T1, C-C chemokine receptor type 4 (Homo sapiens, UniProt P51679); assay type: cell membranes, Membrane; details: chem-1; further: in other assays of this panel Not Active means under 50% inhibition at 10 µM
T1 sequence (P51679 whole entry): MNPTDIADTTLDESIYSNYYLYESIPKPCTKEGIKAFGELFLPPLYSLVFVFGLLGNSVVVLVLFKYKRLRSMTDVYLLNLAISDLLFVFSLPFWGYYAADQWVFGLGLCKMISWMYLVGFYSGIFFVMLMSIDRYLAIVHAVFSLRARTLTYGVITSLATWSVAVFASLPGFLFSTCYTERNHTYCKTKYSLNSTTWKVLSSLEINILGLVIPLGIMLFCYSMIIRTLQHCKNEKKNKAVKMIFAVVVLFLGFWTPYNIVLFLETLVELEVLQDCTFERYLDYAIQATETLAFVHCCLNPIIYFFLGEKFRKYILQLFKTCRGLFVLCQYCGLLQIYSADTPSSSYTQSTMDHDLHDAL

[5] = DRUGMATRIX: Sodium/nucleoside co-transporter radioligand binding (ligand: nitrobenzylthioinosine); assay type: cell membranes, Cavia porcellus, Dunkin-Hartley, Cerebral cortex, Membrane; details: Not Active = under 50% inhibition at 10 µM
[6] = molecular target: Matrix metalloproteinase-9 (Homo sapiens, UniProt P14780); experiment: biochemical; assay type: cell-based;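 further: inhibition of isolated MMP-9 enzyme activity toward a synthetic peptide substrate, from the DrugMatrix protease screening panel; in other assays of this panel Not Active means under 50% inhibition at 10 µM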
Chain of Matrix metalloproteinase-9 (P14780 whole entry): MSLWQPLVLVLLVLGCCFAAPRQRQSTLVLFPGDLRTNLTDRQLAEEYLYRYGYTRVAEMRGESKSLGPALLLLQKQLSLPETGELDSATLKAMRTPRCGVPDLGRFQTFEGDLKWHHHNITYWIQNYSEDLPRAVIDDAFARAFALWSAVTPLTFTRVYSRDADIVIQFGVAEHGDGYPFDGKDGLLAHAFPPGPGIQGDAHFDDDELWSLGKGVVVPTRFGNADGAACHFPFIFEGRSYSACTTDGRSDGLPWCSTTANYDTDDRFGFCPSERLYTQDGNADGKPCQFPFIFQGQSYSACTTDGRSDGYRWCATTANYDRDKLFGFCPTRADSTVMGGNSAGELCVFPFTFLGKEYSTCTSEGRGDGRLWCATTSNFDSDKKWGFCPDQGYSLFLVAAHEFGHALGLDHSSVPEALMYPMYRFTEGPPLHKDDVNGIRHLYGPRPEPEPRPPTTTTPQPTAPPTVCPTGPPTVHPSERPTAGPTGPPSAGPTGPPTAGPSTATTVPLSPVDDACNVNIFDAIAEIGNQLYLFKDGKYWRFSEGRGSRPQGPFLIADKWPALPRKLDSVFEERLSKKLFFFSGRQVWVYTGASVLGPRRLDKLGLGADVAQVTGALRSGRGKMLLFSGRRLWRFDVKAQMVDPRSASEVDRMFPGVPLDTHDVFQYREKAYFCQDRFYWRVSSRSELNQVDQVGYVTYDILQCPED

[7] = molecular target: Insulin receptor (Rattus norvegicus, UniProt P15127); assay type: cell membranes, Wistar, Liver, Membrane; further: in other assays of this panel Not Active means under 50% inhibition at 10 µM
Chain of Insulin receptor (P15127 27-759 limits assumed): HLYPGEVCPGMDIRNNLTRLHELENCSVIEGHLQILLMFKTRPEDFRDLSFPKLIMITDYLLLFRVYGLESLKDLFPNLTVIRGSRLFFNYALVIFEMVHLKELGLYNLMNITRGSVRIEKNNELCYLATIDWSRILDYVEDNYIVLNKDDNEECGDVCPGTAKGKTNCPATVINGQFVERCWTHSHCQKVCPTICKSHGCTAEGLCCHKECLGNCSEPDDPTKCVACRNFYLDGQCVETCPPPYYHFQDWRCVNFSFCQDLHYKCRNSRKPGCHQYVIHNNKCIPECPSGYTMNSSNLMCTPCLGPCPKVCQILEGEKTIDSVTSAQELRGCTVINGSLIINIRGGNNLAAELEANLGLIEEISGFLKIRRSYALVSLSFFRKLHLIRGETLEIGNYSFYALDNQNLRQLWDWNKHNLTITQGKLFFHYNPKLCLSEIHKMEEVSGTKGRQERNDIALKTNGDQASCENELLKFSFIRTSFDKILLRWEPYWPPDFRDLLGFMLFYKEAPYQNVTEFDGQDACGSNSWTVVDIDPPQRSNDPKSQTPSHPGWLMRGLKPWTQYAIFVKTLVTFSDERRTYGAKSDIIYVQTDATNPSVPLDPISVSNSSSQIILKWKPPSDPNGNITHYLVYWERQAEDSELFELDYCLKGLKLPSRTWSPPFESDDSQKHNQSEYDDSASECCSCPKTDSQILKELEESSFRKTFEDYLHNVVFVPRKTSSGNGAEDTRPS
Chain of Insulin receptor (P15127 764-1383 limits assumed): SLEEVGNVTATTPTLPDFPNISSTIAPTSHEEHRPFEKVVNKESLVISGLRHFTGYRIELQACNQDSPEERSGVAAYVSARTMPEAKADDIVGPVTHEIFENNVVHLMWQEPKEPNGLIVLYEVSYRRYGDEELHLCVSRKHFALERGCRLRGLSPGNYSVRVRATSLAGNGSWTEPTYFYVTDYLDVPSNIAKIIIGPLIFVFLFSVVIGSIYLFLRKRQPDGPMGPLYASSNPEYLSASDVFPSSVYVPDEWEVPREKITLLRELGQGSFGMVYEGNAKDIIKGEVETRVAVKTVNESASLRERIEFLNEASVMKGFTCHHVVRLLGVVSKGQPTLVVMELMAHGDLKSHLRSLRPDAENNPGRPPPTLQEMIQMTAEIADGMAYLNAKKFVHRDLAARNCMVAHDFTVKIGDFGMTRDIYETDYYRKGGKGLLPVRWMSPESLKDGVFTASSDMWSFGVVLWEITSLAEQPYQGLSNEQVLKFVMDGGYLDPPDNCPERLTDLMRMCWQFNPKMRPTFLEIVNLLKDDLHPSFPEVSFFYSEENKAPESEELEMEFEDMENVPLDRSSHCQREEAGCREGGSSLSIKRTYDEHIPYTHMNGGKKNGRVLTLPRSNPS

[8] = DRUGMATRIX: Potassium Channel [KATP] radioligand binding (ligand: [3H] Glyburide); assay type: cell membranes, Membrane; details: hit-t15; Not Active = under 50% inhibition at 10 µM
[9] = molecular target: Platelet-activating factor receptor (Homo sapiens, UniProt P25105); assay type: tissue-based; further: in other assays of this panel Not Active means under 50% inhibition at 10 µM
Chain of Platelet-activating factor receptor (P25105 whole entry): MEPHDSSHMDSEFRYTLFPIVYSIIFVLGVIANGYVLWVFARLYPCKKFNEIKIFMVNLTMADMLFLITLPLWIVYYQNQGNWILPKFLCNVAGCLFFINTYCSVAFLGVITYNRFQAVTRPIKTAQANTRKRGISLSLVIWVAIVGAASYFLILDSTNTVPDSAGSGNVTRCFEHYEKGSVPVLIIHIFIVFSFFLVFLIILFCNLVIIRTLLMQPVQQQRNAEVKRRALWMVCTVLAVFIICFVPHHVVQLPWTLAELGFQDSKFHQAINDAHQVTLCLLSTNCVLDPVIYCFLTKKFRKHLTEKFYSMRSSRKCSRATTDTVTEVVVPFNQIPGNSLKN

Chain of Cytochrome P450 3A4 (P08684 whole entry): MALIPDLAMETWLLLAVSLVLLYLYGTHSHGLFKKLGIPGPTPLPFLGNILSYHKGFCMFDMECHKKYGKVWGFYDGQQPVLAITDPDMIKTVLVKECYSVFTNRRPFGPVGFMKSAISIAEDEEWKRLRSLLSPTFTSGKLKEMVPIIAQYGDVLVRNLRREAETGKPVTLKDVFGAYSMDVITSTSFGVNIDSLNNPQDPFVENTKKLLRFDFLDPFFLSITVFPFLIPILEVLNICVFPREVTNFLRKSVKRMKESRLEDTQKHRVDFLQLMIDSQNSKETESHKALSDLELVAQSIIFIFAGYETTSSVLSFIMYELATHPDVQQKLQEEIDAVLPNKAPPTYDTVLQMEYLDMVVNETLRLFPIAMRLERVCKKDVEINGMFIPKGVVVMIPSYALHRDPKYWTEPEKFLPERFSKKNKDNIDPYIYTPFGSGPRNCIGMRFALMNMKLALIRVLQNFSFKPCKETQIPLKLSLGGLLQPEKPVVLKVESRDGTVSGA

COc1ccc(C2C(=O)c3ccccc3C2=O)cc1 [ANISINDIONE]
Not Active: IC50 [1] | Ki [1] | IC50 [2] | Ki [2] | IC50 [3] | Ki [3] | IC50 [4] | IC50 [5] | Ki [5] | IC50 [6] | IC50 [7] | IC50 [8] | Ki [8] | IC50 [9]

CC[C@H](C)[C@H]1O[C@]2(C=C[C@@H]1C)C[C@@H]1C[C@@H](C/C=C(\C)[C@@H](O[C@H]3C[C@H](OC)[C@@H](O[C@H]4C[C@H](OC)[C@@H](O)[C@H](C)O4)[C@H](C)O3)[C@@H](C)/C=C/C=C3\CO[C@@H]4[C@H](O)C(C)=C[C@@H](C(=O)O1)[C@]34O)O2.CO[C@H]1C[C@H](O[C@H]2[C@H](C)O[C@@H](O[C@@H]3/C(C)=C/C[C@@H]4C[C@@H](C[C@]5(C=C[C@H](C)[C@@H](C(C)C)O5)O4)OC(=O)[C@@H]4C=C(C)[C@@H](O)[C@H]5OC/C(=C\C=C\[C@@H]3C)[C@]54O)C[C@@H]2OC)O[C@@H](C)[C@@H]1O [ABAMECTIN]
Not Active: IC50 [1] | Ki [1] | IC50 [2] | Ki [2] | IC50 [3] | Ki [3] | IC50 [4] | IC50 [5] | Ki [5] | IC50 [6] | IC50 [7] | IC50 [8] | Ki [8] | IC50 [9]

CN/C(=N\CCSCc1nc[nH]c1C)NC#N [CIMETIDINE]
Not Active: IC50 [2] | Ki [2] | IC50 [3] | Ki [3] | IC50 [4] | IC50 [5] | Ki [5] | IC50 [6] | IC50 [7] | IC50 [8] | Ki [8] | IC50 [9]

CCCNCC(O)COc1ccccc1C(=O)CCc1ccccc1 (configuration not stated) [PROPAFENONE]
Not Active: IC50 [2] | Ki [2] | IC50 [3] | Ki [3] | IC50 [4] | IC50 [5] | Ki [5] | IC50 [6] | IC50 [7] | IC50 [8] | Ki [8] | IC50 [9]

COc1cc([C@@H]2c3cc4c(cc3[C@@H](O[C@@H]3O[C@@H]5CO[C@@H](C)O[C@H]5[C@H](O)[C@H]3O)[C@H]3COC(=O)[C@H]23)OCO4)cc(OC)c1O [ETOPOSIDE]
Not Active: IC50 [2] | Ki [2] | IC50 [4] | IC50 [5] | Ki [5] | IC50 [6] | IC50 [7] | IC50 [8] | Ki [8] | IC50 [9]

COc1cc(N)c(Cl)cc1C(=O)NC1CCN(CCCOc2ccc(F)cc2)CC1OC (configuration not stated) [CISAPRIDE]
Not Active: IC50 [2] | Ki [2] | IC50 [3] | Ki [3] | IC50 [4] | IC50 [5] | Ki [5] | IC50 [6] | IC50 [7] | IC50 [8] | Ki [8] | IC50 [9]

CC(=O)[C@@]1(O)CC[C@H]2[C@@H]3CCC4=CC(=O)CC[C@]4(C)[C@H]3CC[C@@]21C [HYDROXYPROGESTERONE]
Not Active: IC50 [2] | Ki [2] | IC50 [4] | IC50 [5] | Ki [5] | IC50 [6] | IC50 [7] | IC50 [8] | Ki [8] | IC50 [9]

CC(C)NCC(O)COc1cccc2[nH]ccc12 (configuration not stated) [PINDOLOL]
Not Active: IC50 [2] | Ki [2] | IC50 [4] | IC50 [5] | Ki [5] | IC50 [6] | IC50 [7] | IC50 [8] | Ki [8] | IC50 [9]

NCCCC(O)(P(=O)(O)O)P(=O)(O)O [ALENDRONIC ACID]
Not Active: IC50 [2] | Ki [2] | IC50 [3] | Ki [3] | IC50 [4] | IC50 [5] | Ki [5] | IC50 [6] | IC50 [7] | IC50 [8] | Ki [8] | IC50 [9]

COc1ccc2c3c1O[C@H]1C[C@@H](O)C=C[C@@]31CCN(C)C2 [GALANTAMINE]
Not Active: IC50 [2] | Ki [2] | IC50 [4] | IC50 [5] | Ki [5] | IC50 [6] | IC50 [7] | IC50 [8] | Ki [8] | IC50 [9]

COC1=C(OC)C(=O)C(CCCCCCCCCCO)=C(C)C1=O [IDEBENONE]
Not Active: IC50 [2] | Ki [2] | IC50 [3] | Ki [3] | IC50 [4] | IC50 [5] | Ki [5] | IC50 [6] | IC50 [7] | IC50 [8] | Ki [8] | IC50 [9]

CC(C)=CCC/C(C)=C/CO [GERANIOL]
Not Active: IC50 [2] | Ki [2] | IC50 [4] | IC50 [5] | Ki [5] | IC50 [6] | IC50 [7] | IC50 [8] | Ki [8] | IC50 [9]

CN1[C@@H]2CC[C@H]1C[C@@H](OC(=O)C(CO)c1ccccc1)C2 (some centres not stated) [ATROPINE]
Not Active: IC50 [2] | Ki [2] | IC50 [3] | Ki [3] | IC50 [4] | IC50 [5] | Ki [5] | IC50 [6] | IC50 [7] | IC50 [8] | Ki [8] | IC50 [9]

C[C@@H]1C[C@H]2[C@@H]3CCC4=CC(=O)C=C[C@]4(C)[C@@]3(F)[C@@H](O)C[C@]2(C)[C@@]1(O)C(=O)CO [DEXAMETHASONE]
Not Active: IC50 [2] | Ki [2] | IC50 [3] | Ki [3] | IC50 [4] | IC50 [5] | Ki [5] | IC50 [6] | IC50 [7] | IC50 [8] | Ki [8] | IC50 [9]

CC(C)c1cccc(C(C)C)c1O [PROPOFOL]
Not Active: IC50 [2] | Ki [2] | IC50 [4] | IC50 [5] | Ki [5] | IC50 [6] | IC50 [7] | IC50 [8] | Ki [8] | IC50 [9]

Reference: ChEMBL document CHEMBL1909046, “DrugMatrix in vitro pharmacology data”
